Paper PMC7762591, “AmOctα2R: Functional Characterization of a Honeybee Octopamine Receptor Inhibiting Adenylyl Cyclase Activity” (International Journal of Molecular Sciences, 2020)
Entries after “also recorded” stand apart in the source; their conditions may differ. Read-outs that look alike come from different tables or passages of the source.

Key:
AmOctα2R-HA [1] = target: T1, AmOctα2R-HA (Apis mellifera, UniProt A0A7M7FZR9); experiment: Antagonist concentration-response on octopamine-activated AmOctα2R-HA in flpTM cells; format: cell-based
T1 sequence (A0A7M7FZR9 entry or part of it): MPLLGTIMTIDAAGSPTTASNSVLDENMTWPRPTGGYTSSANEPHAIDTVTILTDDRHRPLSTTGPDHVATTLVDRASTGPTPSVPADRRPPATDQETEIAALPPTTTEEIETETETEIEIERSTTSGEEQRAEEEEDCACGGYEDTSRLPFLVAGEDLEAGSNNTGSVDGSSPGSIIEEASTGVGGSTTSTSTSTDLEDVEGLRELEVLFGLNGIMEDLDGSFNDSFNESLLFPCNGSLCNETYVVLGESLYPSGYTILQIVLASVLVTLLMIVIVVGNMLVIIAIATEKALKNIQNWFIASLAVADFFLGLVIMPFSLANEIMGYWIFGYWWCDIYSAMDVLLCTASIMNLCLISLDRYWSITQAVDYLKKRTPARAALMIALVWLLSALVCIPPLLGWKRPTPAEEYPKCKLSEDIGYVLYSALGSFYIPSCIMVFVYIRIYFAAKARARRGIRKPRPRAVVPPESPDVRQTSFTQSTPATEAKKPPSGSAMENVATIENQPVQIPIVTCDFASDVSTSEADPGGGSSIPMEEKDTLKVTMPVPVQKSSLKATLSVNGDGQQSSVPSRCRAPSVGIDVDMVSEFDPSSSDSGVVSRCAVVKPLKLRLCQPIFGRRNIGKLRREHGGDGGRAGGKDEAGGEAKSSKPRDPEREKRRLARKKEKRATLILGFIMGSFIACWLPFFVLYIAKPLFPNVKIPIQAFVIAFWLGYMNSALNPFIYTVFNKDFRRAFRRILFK
Experimental: (§1) For AmOctα2R-HA expression and pharmacological analysis, we used a human embryonic kidney (HEK293; flpIn cells; Invitrogen/ThermoFisher Scientific; #750-07)-based cell line that was transfected with a gene encoding a variant of the A2-subunit of the olfactory CNG ion channel (flpTM cells), provided by Sibion biosciences, Jülich, Germany. These flpTM cells were transfected with 3 µg, 8 µg, or 12 µg of the pcAmOctα2R-HA construct by a modified calcium phosphate method following a previously established protocol. Transfected cells were selected in the presence of the antibiotics G418 (1 mg/mL) and hygromycin (100 µg/mL). Expression of AmOctα2R-HA was monitored by Western blotting and immunocytochemistry using anti-HA antibodies (Roche/Sigma-Aldrich/Merck).
(§2) A stably transfected cell line was used to examine AmOctα2R-HA receptor activity by Ca^2+ imaging. Control measurements were performed in the parental (flpTM) cell line. Changes in [cAMP]i were registered indirectly via co-expressed CNG channels that were opened by cAMP and cause an influx of extracellular Ca^2+ [30, 32, 48]. Changes in [Ca^2+]i were monitored with the Ca^2+-sensitive fluorescent dye Fluo-4. Cells were grown in 96-well dishes to a density of approximately 2 × 10^4 cells per well and were loaded at room temperature with Fluo-4 AM as described previously. After 90 min, the loading solution was substituted with a dye-free extracellular solution (ECS; 120 mM NaCl, 5 mM KCl, 2 mM MgCl2, 2 mM CaCl2, 10 mM HEPES, and 10 mM glucose, pH 7.4 (NaOH)) containing 100 µM IBMX. The plate was transferred into a fluorescence reader (FLUOstar Omega, BMG Labtech, Ortenberg, Germany) to monitor Fluo-4 fluorescence. The excitation wavelength was 485 nm. Fluorescence emission was detected at 520 nm. Concentration series of various biogenic amines and synthetic receptor ligands were added, once Fluo-4 fluorescence intensity reached a stable value in each well. The changes in Fluo-4 fluorescence were recorded automatically. Concentration–response curves were established from at least three independent experiments with quadruplicate measurements.
Table S3. Mean values for half-maximal inhibition (IC50 [M] and log IC50 ± SD) for substances with antagonistic activity on octopamine-activated AmOctα2R. For each substance at least […] independent experiments with quadruplicate measurements were performed. Values were obtained from non-linear fitting of the data from concentration-response curves (GraphPad Prism 5.04).
Substance IC50 [M] log IC50 […]
Biol Direct. 2008, 3, 20. […]
Int.

AmOctα2R-HA [2] = target: T1, AmOctα2R-HA; experiment: Antagonist concentration-response on tyramine-activated AmOctα2R-HA in flpTM cells; format: cell-based
Experimental: The ability of various potential antagonists for impairing AmOctα2R-HA activity was assessed in a similar way. […] Ligand concentrations that led to the half-maximal inhibition of AmOctα2R-HA (IC50) were determined from the concentration–response curves and are summarized in Table 2.
as §1, §2

AmOctα2R-HA [3] = target: T1, AmOctα2R-HA; experiment: Agonist effects on NKH 477-stimulated cAMP (Fluo-4 Ca2+ fluorescence via co-expressed CNG channel) in AmOctα2R-HA-expressing flpTM cells; format: cell-based; details: for effect on NKH 477-stimulated cAMP production (Ca2+-dependent fluorescence signal): biogenic amines 10^−6 M each
Experimental: as §1, §2

[4] = test system: nontransfected flpTM cells; experiment: Control measurements of Fluo-4 fluorescence in nontransfected (parental) flpTM cells; format: cell-based, human
Experimental: as §1
A stably transfected cell line was used to examine AmOctα2R-HA receptor activity by Ca^2+ imaging. […] Changes in [Ca^2+]i were monitored with the Ca^2+-sensitive fluorescent dye Fluo-4. […] The plate was transferred into a fluorescence reader (FLUOstar Omega, BMG Labtech, Ortenberg, Germany) to monitor Fluo-4 fluorescence. […] Fluorescence emission was detected at 520 nm. Concentration series of various biogenic amines and synthetic receptor ligands were added, once Fluo-4 fluorescence intensity reached a stable value in each well. The changes in Fluo-4 fluorescence were recorded automatically. […]

DmOctα2R = test system: DmOctα2R; set-up: method as in PMID 28942992; details: dose-dependent activation of DmOctα2R; cited from earlier work
[5] = log of IC50 in M, octopamine-activated (3 × 10^−7 M octopamine), read-out: log IC50 ± SD (converted)
[6] = log of IC50 in M, tyramine-activated (10 µM tyramine), read-out: logIC50 ± SD (converted)
[7] = tyramine-activated (10 µM tyramine)
[8] = log IC50 ± SD, log of IC50 in M, octopamine-activated (3 × 10^−7 M octopamine)
[9] = block of the action of octopamine, second value of the pair, read-out: IC50
[10] = tyramine-activated (10 µM tyramine), 10 µM NKH 477, 100 µM IBMX, read-out: IC50 [M], mean value for half-maximal inhibition
[11] = log of EC50 in M, mean of all experiments, octopamine n = 7, tyramine n = 11, read-out: logEC50 ± SD, mean value (converted)
[12] = log of EC50 in M, single concentration-response curve (Figures 4 and 6), read-out: logEC50 ± SD, typical experiment (converted)
[13] = mean of all experiments, octopamine n = 7, tyramine n = 11, 10 µM NKH 477, 100 µM IBMX, read-out: EC50 [M], mean value for half-maximal stimulation
[14] = single concentration-response curve (Figures 4 and 6), octopamine fitted from 10^−9 M to 3 × 10^−6 M, read-out: EC50 (half-maximal reduction of cAMP / activation), typical experiment

NC1=NCC2c3ccccc3Cc3ccccc3N12 (stereo not drawn) [epinastine]
IC50 (AmOctα2R-HA [1]; [5]): 16.2 nM | IC50 (AmOctα2R-HA [2]; [6]): 1.78e-08 M | Maximal Inhibition [%] (AmOctα2R-HA [2]; [7]): 17.31%

COC(=O)[C@@H]1[C@H]2C[C@H]3c4[nH]c5ccccc5c4CCN3C[C@@H]2CC[C@@H]1O [yohimbine]
IC50 (AmOctα2R-HA [1]; [8]): 363 nM | IC50 (AmOctα2R-HA [2]): 7.59e-08 M | Maximal Inhibition [%] (AmOctα2R-HA [2]; [7]): 14.3%

Cc1ccc(N(CC2=NCCN2)c2cccc(O)c2)cc1 [phentolamine]
IC50 (AmOctα2R-HA [1]; [9]): 8.21 nM | IC50 (AmOctα2R-HA [1]; [5]): 8.13 nM | IC50 (AmOctα2R-HA [2]; [6]): 5.01e-09 M | Maximal Inhibition [%] (AmOctα2R-HA [2]; [7]): 16.1% | IC50 (AmOctα2R-HA [2]; [10]): 5.6e-09 M

O=C(c1ccc(F)cc1)C1CCN(CCn2c(=O)[nH]c3ccccc3c2=O)CC1 [ketanserin]
IC50 (AmOctα2R-HA [1]; [5]): 324 nM | IC50 (AmOctα2R-HA [2]; [6]): 5.13e-07 M | Maximal Inhibition [%] (AmOctα2R-HA [2]; [7]): 17.11%

NCC(O)c1ccc(O)cc1 (stereo not drawn) [octopamine]
octopamine concentration at which an increase in the fluorescence signal was observed (AmOctα2R-HA [3]; AmOctα2R-HA-expressing flpTM cells, U-shaped curve, 10 µM NKH 477, 100 µM IBMX): ≥ 3 µM | Emax at 1 µM (AmOctα2R-HA [3]; at 10^−6 M octopamine, relative to 10 µM NKH 477 (=100%), read-out: maximal reduction of cAMP synthesis): ~25% | effect on NKH 477-stimulated cAMP production (Ca2+-dependent fluorescence signal) (AmOctα2R-HA [3]): decrease in the Ca^2+-dependent fluorescence signal | EC50 (AmOctα2R-HA [3]; [11]): 3.72e-08 M | EC50 (AmOctα2R-HA [3]; [12]): 1.17e-07 M | EC50 (AmOctα2R-HA [3]; [13]): 5.87e-08 M | specificity for octopamine over tyramine (difference in EC50) (AmOctα2R-HA [3]; ratio of EC50 values): ~ 30 fold | EC50 (AmOctα2R-HA [3]; [14]): 1.17e-07 M | octopamine concentration leading to an increase in Fluo-4 fluorescence ([4]; in the presence of NKH 477): ≥ 300 nM

COc1ccc2[nH]cc(CCN)c2c1 [5-MT, 5-methoxytryptamine]
IC50 (AmOctα2R-HA [1]; IC50, block of the action of octopamine, second value of the pair): 836 nM | IC50 (AmOctα2R-HA [1]; [8]): 832 nM | IC50 (AmOctα2R-HA [2]; IC50, block of the action of tyramine, first value of the printed pair): 2.06e-08 M | IC50 (AmOctα2R-HA [2]; logIC50 ± SD, log of IC50 in M, tyramine-activated (10 µM tyramine)): 1.91e-08 M | Maximal Inhibition [%] (AmOctα2R-HA [2]; [7]): 20.3%

CCCN(CCC)C1CCc2cccc(O)c2C1 (stereo not drawn) [8-OH-DPAT, 8-Hydroxy-2-(dipropylamino)tetralin]
IC50 (AmOctα2R-HA [1]; [8]): 166 nM | IC50 (AmOctα2R-HA [2]): 7.08e-07 M | Maximal Inhibition [%] (AmOctα2R-HA [2]; [7]): 7.21%

NCCc1c[nH]c2ccc(C(N)=O)cc12 [5-CT, 5-carboxamidotryptamine]
IC50 (AmOctα2R-HA [1]; [9]): 0.27 nM | log IC50 ± SD (AmOctα2R-HA [1]; log of IC50 in M, octopamine-activated (3 × 10^−7 M octopamine)): -9.57 ± 0.21 | logIC50 ± SD (AmOctα2R-HA [2]; log of IC50 in M, tyramine-activated (10 µM tyramine)): −8.48 ± 0.20 | Maximal Inhibition [%] (AmOctα2R-HA [2]; [7]): 10.8% | IC50 (AmOctα2R-HA [2]; [10]): 4.16e-09 M

Cc1nn(C)c(C)c1-c1cccc2c1CC[C@H](N(C)C)C2 [AS-19]
IC50 [M], mean value for half-maximal inhibition (AmOctα2R-HA [2]; tyramine-activated (10 µM tyramine), 10 µM NKH 477, 100 µM IBMX): did not show any effect; also recorded: no effect

NCCc1ccc(O)cc1 [tyramine]
effect on NKH 477-stimulated cAMP production (Ca2+-dependent fluorescence signal) (AmOctα2R-HA [3]): decrease in the Ca^2+-dependent fluorescence signal | EC50 (AmOctα2R-HA [3]; [11]): 1.66e-06 M | EC50 (AmOctα2R-HA [3]; [12]): 1.63e-06 M | EC50 (AmOctα2R-HA [3]; [13]): 1.85e-06 M | Emax (AmOctα2R-HA [3]; saturated at tyramine concentration of ≥3 × 10^−5 M, relative to 10 µM NKH 477 (=100%), read-out: reduction of cAMP signal at saturation): ~17% | EC50 (AmOctα2R-HA [3]; [14]): 1.63e-06 M | change in the fluorescence signal upon application [4]: no change in the fluorescence signal

NCCc1ccc(O)c(O)c1 [dopamine]
effect on NKH 477-stimulated cAMP production (Ca2+-dependent fluorescence signal) (AmOctα2R-HA [3]): no effect

NCCc1c[nH]c2ccc(O)cc12 [serotonin, 5-hydroxytryptamine]
activation of AmOctα2R (AmOctα2R-HA [3]): failed to activate | effect on NKH 477-stimulated cAMP production (Ca2+-dependent fluorescence signal) (AmOctα2R-HA [3]): no effect | EC50 (DmOctα2R): 1040 nM
